Assay results published in patent US20110104121A1, “Female Reproductive Tract and Anal Prophylaxes” (priority 2008, published 2011).

Experiments:
[1] = test system: Monocytes-derived Dendritic cells (MDDCs); experiment: surface receptor expression on monocyte-derived dendritic cells, flow cytometry; format: cell-based, human
Description: Materials and Methods. Uterine epithelial cell line (ECC-1) was cultured according to established methods to establish cellular polarity with apical and basolateral compartments (Schaefer, et al. (2004) Immunology 112:428-436). The formation of tight junctions by the epithelial cell monolayer was routinely monitored by measurement of transepithelial resistance (TER) (Richardson, et al. (1995) Biol. Reprod. 53:488-498). […] The pooled media was centrifuged for 5 minutes at 10,000 g and stored at −80° C. for use in subsequent studies.
Peripheral blood mononuclear cells (PBMC) were obtained from residues of platelet pheresis according to known methods (Dietz, et al. (2006) Transfusion 46:2083-2089). Monocytes were subsequently enriched with Rosette Sep reagent (StemCell, Vancouver, BC). Blood specimens were from healthy adult males. Monocytes-derived Dendritic cells (MDDCs) were in vitro generated with GM-CSF (50 ng/ml) and IL-4 (50 ng/ml) (PeproTech Inc, Rocky Hill, N.J.) (Sallusto Lanzavecchia (1994) J. Exp. Med. 179:1109-1118). MDDCs were differentiated for 7 days in the presence or absence of 24-hour conditioned medium (1:1 dilution) obtained from ECC-1. In some experiments TGF-beta receptor 1 blocker, SB431542 (10 μM; Tocris Cookson, Inc., St. Louis, Mo.) (Eriksson, et al. (2006) Am. J. Reprod. Immunol. 56:321-328; Shen, et al. (2007) Clin. Exp. Immunol. 149(1):155-61) was simultaneously added with ECC-1 CM for the entire duration of the differentiation. As positive control for TGF-beta effects on MDDCs, experimental conditions were included in which MDDCs were differentiated with recombinant human TGF-beta1 at three different concentrations (0.1, 1 and 10 ng/mL) in the presence or absence of SB431542. Following 7 days of culture, cells were harvested, washed and subsequently used for flow cytometry analyses.
Following six days of in vitro differentiation, surface staining of MDDCs was performed with the following fluorochrome-labeled monoclonal antibodies: CD1a (HI149), CD14 (61D3), from Ebioscience (San Diego, Calif.); and CD163 (215927), CCR5 (45531), CXCR4 (12G5), DC-SIGN (120507) from R&D Systems (Minneapolis, Minn.). Matched isotype controls for the antibodies were used to control for non-specific binding. Following antibody staining, cells were washed with staining buffer and fixed with 2% methanol-free paraformaldehyde in 1×PBS (2% PFA), followed by analysis with a Becton Dickinson FACS CALIBUR (San Jose, Calif.). The acquired FACS data were analyzed by CELL QUEST (BD Biosciences).
Statistical analysis was performed using two-way analysis of variance (ANOVA) ([…] Prism Version 5.0; […] Software Inc., San Diego, Calif.). A value of P<0.05 was considered significant.

[2] = systemic inflammatory response to E. coli endotoxin after hydrocortisone pre-treatment in volunteers; format: in vivo, human; settings: for plasma G-CSF concentrations after LPS, vs Control Group: multiplex immunobead
Excerpt: Materials and Methods. Participants (n=36) were healthy male and female volunteers who were taking no chronic medications (other than oral contraceptives) and who were between the ages of 18 and 55.
On Day 1 of the study, participants were randomized in a double-blind manner to a Control Group, a Stress Group or a Pharm Group. A peripheral intravenous catheter was inserted in a hospital outpatient facility where participants remained during the day. For six hours, Control Group participants received intravenous saline at […] by infusion pump; Stress Group participants received 1.5 μg/kg/minute hydrocortisone (SOLUCORTEF®, Upjohn) in normal saline at 10 ml/hour, and Pharm Group participants received 3.0 μg/kg/minute hydrocortisone in normal saline at 10 ml/hour. The following day (Day 2), participants were admitted to an acute care facility where a peripheral intravenous catheter was again inserted in a proximal arm vein. Continuous electrocardiographic and pulse oximetry measurements were initiated; blood pressure and core temperature were measured every 15 minutes for the next five hours and every 30 minutes for the next 4 hours. Participants received 10 ml/kg lactated Ringer's solution intravenously over the first 2 hours after which the infusion was decreased to 1.5 ml/kg/hour. After the first hour, participants were administered 2 ng/kg E. coli endotoxin intravenously over 2 minutes. Participants remained in the acute care facility for remainder of the day with continuous nursing care and under the direct supervision of a physician. The intravenous catheter was removed after 9 hours. The following day (Day 3) and 2 days later (Day 5), repeat blood samples were obtained by venipuncture.
Salivary free cortisol measurements were made on Day 1 to compare the in vivo cortisol pre-treatment with laboratory reports that typically test the effects of free glucocorticoid concentrations. On Day 2 of the study, total plasma cortisol was measured to allow for comparison with the many clinical reports that have assessed these hormones during experimental endotoxemia and in endotoxemic patients. For salivary free cortisol measurements, saliva samples were collected with a […]™ collection device and stored at −80° C. until analysis by SALIMETRICS® Expanded Range High Sensitivity Salivary Cortisol Enzyme Immunoassay Kit (State College, Pa.). The analytical sensitivity of this assay is 3 ng/dL. For total cortisol, plasma was separated from heparinized whole blood and stored at −80° C. until analysis for plasma cortisol on an […]® 1000 analyzer using a Siemens Cortisol kit (Los Angeles, Calif.). The analytical sensitivity of this assay is 0.2 μg/dL. All adrenocorticotropic hormone (ACTH) measurements were performed on the […]® 1000 analyzer using a Siemens ACTH kit (Los Angeles, Calif.). The analytical sensitivity of this assay is 9 pg/mL. C-reactive protein (CRP) measurements were performed on the Roche P Module using the Roche High Sensitivity CRP kit (Indianapolis, Ind.). Analytical sensitivity of this assay is 0.1 mg/L. Complete blood counts were performed on the ADVIA 120® Hematology Analyzer using Siemens reagents (Ramsey, Minn.).
Plasma samples were collected and frozen at −80° C. for batched measurement of TNFalpha, IL-6 and IL-10 concentrations. TNFalpha was measured using a TNFalpha sandwich ELISA (paired antibodies; BD Biosciences Pharmingen, San Diego, Calif.). IL-6 levels were determined using an IL-6 ELISA kit (Peprotech, Rocky Hill, N.J.). IL-10 was measured using an IL-10 ELISA kit (Biosource, Camarillo, Calif.). Further cytokine testing was completed on frozen samples using multiplex immunobead technology (Luminex Corp.) which combines the principle of a sandwich immunoassay with fluorescent bead-based technology, allowing individual and multiplex analysis of multiple analytes in a single microtiter well. […]

[3] = test system: HIV-1 X4/T-tropic IIIB; experiment: TZM-bl infectivity assay, HIV-1 IIIB; format: cell-based
Description: (§1) The TZM indicator cell line is a HeLa cell derivative that expresses high levels of CD4, CCR5 and CXCR4 (Wei, et al. (2002) Antimicrob. Agents Chemother. 46(6):1896-905). The cells contain HIV long terminal repeat (LTR)-driven β-galactosidase and luciferase reporter cassettes that are activated by HIV tat expression.
(§2) TZM cells were seeded at 2×10^4 cells per well in a 96-well microtiter plate and allowed to adhere overnight at 37° C. Varying doses of recombinant human Trappin-2/Elafin (Peprotech, Rocky Hill, N.J.) were incubated with HIV-1 IIIB and BaL at multiplicity of infection (MOI) 1 for 1 hour at 37° C. in a final volume of 100 μl. Following incubation, the media was aspirated from TZM cells and the virus plus Trappin-2/Elafin was added to the cells along with 100 μl of TZM media. Luciferase activity was measured after 48 hours at 37° C. with 5% CO2 in a humidified incubator. Briefly, the supernatants were aspirated, and the cells were lysed with a BETA GLO luciferase assay substrate. Light intensity of each well was measured using a luminometer. Uninfected cells were used to determine background luminescence. All infectivity assays were performed in quadruplicate.
(§3) Other experiments were conducted in order to determine whether the inhibitory effects of Trappin-2/Elafin were at the cell surface level such as the blocking of a co-receptor. For these experiments, varying doses of Trappin-2/Elafin were directly added to TZM cells and incubated for 1 hour at 37° C. prior to washing with 1×PBS and addition of IIIB or BaL viruses. In additional experiments to determine possible post-infection mechanisms of inhibition by Trappin-2/Elafin, TZM cells were infected with HIV-1 IIIB and BaL at MOI 1 and were washed at 6 hours and 24 hours post-infection followed by the addition of 10 ng/ml rTrappin-2/Elafin. Assays were developed at 48 hours by addition of the BETA-GLO substrate and measuring relative light units using a luminometer.
(§4) Since HIV-1 is an important sexually transmitted pathogen, the activity of recombinant Trappin-2/Elaf in (rTrappin-2/Elafin) was evaluated against HIV-1 X4/T-tropic IIIB and R5/M-tropic BaL. HIV-1 IIIB and BaL were incubated with rTrappin-2/Elafin at 0.01, 0.1, 1, and 10 ng/ml for 1 hour at 37° C. TZM-bl indicator cells were plated the previous day at 25,000 cells per well and grown to 70-80% confluence. The virus-Trappin-2/Elafin mixture was added to the TZM cells and incubated for 48 hours at 37° C. At the end of the incubation period, BETA-GLO substrate was added to the cells and viral infection was quantified using a luminometer, expressed as relative light units (RLU). The data was expressed as percent of control with virus-only control set at 100%. […] Therefore, the concentrations of Trappin-2/Elafin showing anti-HIV-1 activity were in the range of physiological levels of this molecule that were secreted by the FRT epithelial cells. Since the inhibitory activity was observed as a result of pre-incubation of HIV-1 and rTrappin-2/Elafin, it is contemplated that the effect of Trappin-2/Elafin on viral infection was direct. […]
(§5) Laboratory-adapted viral strains HIV-1 IIIB (×4) and BaL (R5) were obtained and virus stocks were propagated in PHA-stimulated human PBMC and stored frozen at −80° C. Virus stocks produced in PBMC of molecularly cloned HIV-1 NL4.3 (×4; lab-adapted) and YU-2.c (R5; directly cloned without culture) were obtained. Virus titers were determined on TZM-bl cells as described herein. Also used was a PBMC-derived virus stock of pCH077.c, a recently generated Clade B infectious molecular clone matching the nucleotide sequence determined to be the transmitted/founder virus sequence of CHAVI subject 700010077. […]

[4] = test system: HIV-1 R5/M-tropic BaL; experiment: TZM-bl infectivity assay, HIV-1 BaL; format: cell-based; settings: for post-infection inhibition, BaL: 20 ng/mL
Description: as §1, §2, §3, §4, §5

[5] = cells pre-incubated 1 hour, washed before virus
[6] = virus pre-incubated 1 hour with 2, 20, 200 ng/mL, 48 hours

Question: For `NC(=O)c1ccc(-c2nc(-c3ccc4c(c3)OCO4)c(-c3ccccn3)[nH]2)cc1` [SB431542], which “modulatory effect of ECC-1 CM (suppression of DC-SIGN expression on MDDCs)” value ([1]; SB431542 10 μM added with ECC-1 CM during differentiation) is on record?
Answer: Its value is “abrogated”.

Question: And the “expression of CD1a by CM-DC” value ([1]; TGF-beta receptor blocker with ECC-1 CM)?
Answer: The value was “no significant effect”.

Question: What about the “UEC conditioned medium effects on DC (enhanced CCR5 and CXCR4, suppressed DC-SIGN)” value ([1]; in vitro differentiation) of the same compound?
Answer: Its value is “abolished these effects”.

Question: With `C[C@]12CCC(=O)C=C1CC[C@@H]1[C@@H]2[C@@H](O)C[C@@]2(C)[C@H]1CC[C@]2(O)C(=O)CO` [hydrocortisone] as the compound, how does the “release of early pro-inflammatory molecules” value ([2]; 1.5 μg/kg/minute at 10 ml/hr for six hours) read?
Answer: Its value is “significant enhancement”.

Question: What about the “Plasma IL-6 after LPS, vs Control Group” value ([2]; Pharm 3 μg/kg/min) of the same compound?
Answer: Its value is “no difference”.

Question: And the “Plasma IL-10 after LPS, vs Control Group” value ([2]; Pharm 3 μg/kg/min)?
Answer: The value was “no difference”.

Question: And the “TNF-alpha concentrations in plasma after LPS, vs Control Group” value ([2]; Pharm 3 μg/kg/min)?
Answer: The value was “not significantly different”.

Question: What about the “plasma G-CSF concentrations after LPS, vs Control Group” value ([2]; Pharm 3 μg/kg/min) of the same compound?
Answer: Its value is “no difference”.

Question: What about the “TNF-alpha concentrations in plasma after LPS, vs Control Group” value ([2]; Stress 1.5 μg/kg/min) of the same compound?
Answer: The value was “not significantly different”.

Question: What about the “ACTH concentrations, vs Control Group” value ([2]; Stress 1.5 μg/kg/min, 3 and 4 hours after LPS injection) of the same compound?
Answer: The value was “higher”.

Question: What about the “plasma G-CSF concentrations after LPS, vs Control Group” value ([2]; Stress 1.5 μg/kg/min) of the same compound?
Answer: Its value is “significant augmentation”.

Question: And the “Plasma IL-6 after LPS, vs Control Group” value ([2]; Stress 1.5 μg/kg/min, p<0.005)?
Answer: The value was “significantly higher”.

Question: What about the “Plasma IL-10 after LPS, vs Control Group” value ([2]; Stress 1.5 μg/kg/min, p<0.05) of the same compound?
Answer: Its value is “significantly lower”.

Question: For “rCCL20/MIP3α: recombinant human CCL20/MIP3α (Peprotech)”, which “post-infection inhibition, IIIB” value ([3]; added 6 and 24 hours post-infection, 20 ng/mL) is on record?
Answer: The value was “no significant post-infection inhibition”.

Question: And the “inhibition of X4/IIIB after pre-incubation of TZM cells” value [3, 5]?
Answer: The value was “no significant inhibition”.

Question: What about the “inhibition of X4/IIIB” value [3, 6] of the same compound?
Answer: The value was “inhibited”.

Question: And the “post-infection inhibition, BaL” value ([4]; added 6 hours post-infection)?
Answer: Its value is “slight inhibition”.

Question: And the “post-infection inhibition, BaL” value ([4]; added 24 hours post-infection)?
Answer: Its value is “no significant post-infection inhibition”.

Question: What about the “inhibition of R5/BaL after pre-incubation of TZM cells” value [4, 5] of the same compound?
Answer: Its value is “no significant inhibition”.

Question: And the “inhibition of R5/BaL” value [4, 6]?
Answer: Its value is “inhibited”.
